One may read the Ki as a dissociation constant, usually derived from enzyme kinetics or from competition with a known ligand.

In assay [1] the target is T1, Alpha-2A adrenergic receptor (Rattus norvegicus, UniProt P22909).
T1 sequence (P22909 whole entry): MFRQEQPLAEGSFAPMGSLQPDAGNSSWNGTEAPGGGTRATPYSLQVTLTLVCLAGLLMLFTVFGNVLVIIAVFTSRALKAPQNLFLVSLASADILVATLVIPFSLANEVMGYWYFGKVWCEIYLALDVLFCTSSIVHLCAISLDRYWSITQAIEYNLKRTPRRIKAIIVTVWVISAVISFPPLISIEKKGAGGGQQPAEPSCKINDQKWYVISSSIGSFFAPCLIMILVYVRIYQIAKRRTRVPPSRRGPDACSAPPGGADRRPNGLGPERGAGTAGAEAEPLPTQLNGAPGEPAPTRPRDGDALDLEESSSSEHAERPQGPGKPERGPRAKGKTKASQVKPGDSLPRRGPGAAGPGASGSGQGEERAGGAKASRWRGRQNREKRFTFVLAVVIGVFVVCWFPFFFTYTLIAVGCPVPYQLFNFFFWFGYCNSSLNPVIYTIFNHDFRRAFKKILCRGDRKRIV
Nature of the assay: Displacement of [3H]-clonidine from Sprague-Dawley rat alpha2 adrenergic receptor by radioligand binding assay. (In a radioligand displacement assay an active substance lowers the binding of a labelled ligand.)

For assay [2], the target named is T2, Phenylethanolamine N-methyltransferase (Homo sapiens) (UniProt P11086).
T2 sequence (whole entry): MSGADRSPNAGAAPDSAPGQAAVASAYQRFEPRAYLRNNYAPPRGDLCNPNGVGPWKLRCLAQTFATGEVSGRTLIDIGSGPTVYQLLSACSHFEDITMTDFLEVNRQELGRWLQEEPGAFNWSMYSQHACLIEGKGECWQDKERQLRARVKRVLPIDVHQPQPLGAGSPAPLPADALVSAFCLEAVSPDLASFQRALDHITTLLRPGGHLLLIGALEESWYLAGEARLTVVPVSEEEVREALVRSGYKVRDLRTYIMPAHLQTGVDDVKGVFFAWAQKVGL

The target in assay [3] is T3, Phenylethanolamine N-methyltransferase (Homo sapiens, UniProt P11086).
T3 sequence (P11086 whole entry): T2 sequence (whole entry)
Nature of the assay: Competitive inhibition of C-terminal hexahistidine tag in human recombinant PNMT expressed in Escherichia coli assessed as inhibition constant using AdoMet as substrate in presence of 100 uM PEA as co-substrate by Sigma-plot analysis.

`NCC1Cc2ccccc2CN1` (stereo not given) yielded an inhibitory constant (Ki) in assay [1] of 1.5 µM. For the same compound, the Kis in assay [2] came to 1.4 µM.
As for `Nc1ncnc2c1ncn2[C@@H]1O[C@H](CSCC[C@H](N)C(=O)O)[C@@H](O)[C@H]1O` [S-ADENOSYLHOMOCYSTEINE], the Ki in assay [3] came to 14 µM.
In assay [1], `NC(=O)C1Cc2ccccc2CN1` (stereo not given) gave an inhibition constant Ki of 250 µM. The Kis in assay [2] is 31 µM.

(Values after ChEMBL document CHEMBL4699623 (J Med Chem, 2020).)
